{"source": "ChEMBL document CHEMBL1201862", "about": "“PubChem BioAssay data set” (2004)", "key": {"[1]": {"target": "T1, Sentrin-specific protease 6 (Homo sapiens, UniProt Q9GZR1)", "T1 sequence (Q9GZR1 whole entry)": "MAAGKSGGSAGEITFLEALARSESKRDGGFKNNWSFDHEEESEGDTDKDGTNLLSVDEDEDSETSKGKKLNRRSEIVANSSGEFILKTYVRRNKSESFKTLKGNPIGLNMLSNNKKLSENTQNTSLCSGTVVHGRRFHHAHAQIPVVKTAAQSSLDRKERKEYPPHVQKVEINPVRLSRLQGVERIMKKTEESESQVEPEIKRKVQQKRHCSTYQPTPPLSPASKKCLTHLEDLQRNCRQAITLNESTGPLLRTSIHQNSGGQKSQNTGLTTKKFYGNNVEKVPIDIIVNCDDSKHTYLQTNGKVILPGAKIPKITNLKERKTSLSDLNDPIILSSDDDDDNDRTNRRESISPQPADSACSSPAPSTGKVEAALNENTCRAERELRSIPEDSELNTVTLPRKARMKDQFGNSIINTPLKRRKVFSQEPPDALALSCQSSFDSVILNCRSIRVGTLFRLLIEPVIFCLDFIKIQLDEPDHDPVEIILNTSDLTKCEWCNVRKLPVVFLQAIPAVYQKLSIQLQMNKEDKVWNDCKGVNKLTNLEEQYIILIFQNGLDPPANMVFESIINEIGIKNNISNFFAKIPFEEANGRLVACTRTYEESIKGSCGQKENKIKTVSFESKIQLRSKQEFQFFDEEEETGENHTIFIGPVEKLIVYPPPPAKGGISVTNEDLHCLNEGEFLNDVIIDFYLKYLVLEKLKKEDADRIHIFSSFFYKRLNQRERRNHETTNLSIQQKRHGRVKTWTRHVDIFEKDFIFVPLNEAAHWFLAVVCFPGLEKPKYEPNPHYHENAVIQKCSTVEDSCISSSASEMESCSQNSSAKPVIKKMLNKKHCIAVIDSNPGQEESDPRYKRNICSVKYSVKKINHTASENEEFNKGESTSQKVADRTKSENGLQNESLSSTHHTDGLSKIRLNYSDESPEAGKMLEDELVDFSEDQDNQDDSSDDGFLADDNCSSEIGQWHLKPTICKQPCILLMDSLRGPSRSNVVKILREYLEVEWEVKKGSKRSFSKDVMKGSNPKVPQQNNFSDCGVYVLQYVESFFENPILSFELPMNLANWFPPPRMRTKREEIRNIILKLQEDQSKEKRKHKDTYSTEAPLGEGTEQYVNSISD", "type": "functional"}, "[2]": {"assay": "inhibitors of firefly luciferase expression or activity, dose response, H4 neuroglioma cells, luminescence (AID 1990)", "type": "functional, cell-based"}, "[3]": {"assay": "Luminescence Cell-Based Dose Response HTS to Identify Inhibitors of 5'UTR Stem-Loop Driven Prion Protein mRNA Translation in H4 Neuroglioblastoma Cells. [Related pubchem assays: 1827 (Project Summary), 1813 (Primary HTS)]", "type": "functional"}, "[4]": {"target": "T2, Apoptotic protease-activating factor 1 (Homo sapiens, UniProt O14727)", "T2 sequence (O14727 whole entry)": "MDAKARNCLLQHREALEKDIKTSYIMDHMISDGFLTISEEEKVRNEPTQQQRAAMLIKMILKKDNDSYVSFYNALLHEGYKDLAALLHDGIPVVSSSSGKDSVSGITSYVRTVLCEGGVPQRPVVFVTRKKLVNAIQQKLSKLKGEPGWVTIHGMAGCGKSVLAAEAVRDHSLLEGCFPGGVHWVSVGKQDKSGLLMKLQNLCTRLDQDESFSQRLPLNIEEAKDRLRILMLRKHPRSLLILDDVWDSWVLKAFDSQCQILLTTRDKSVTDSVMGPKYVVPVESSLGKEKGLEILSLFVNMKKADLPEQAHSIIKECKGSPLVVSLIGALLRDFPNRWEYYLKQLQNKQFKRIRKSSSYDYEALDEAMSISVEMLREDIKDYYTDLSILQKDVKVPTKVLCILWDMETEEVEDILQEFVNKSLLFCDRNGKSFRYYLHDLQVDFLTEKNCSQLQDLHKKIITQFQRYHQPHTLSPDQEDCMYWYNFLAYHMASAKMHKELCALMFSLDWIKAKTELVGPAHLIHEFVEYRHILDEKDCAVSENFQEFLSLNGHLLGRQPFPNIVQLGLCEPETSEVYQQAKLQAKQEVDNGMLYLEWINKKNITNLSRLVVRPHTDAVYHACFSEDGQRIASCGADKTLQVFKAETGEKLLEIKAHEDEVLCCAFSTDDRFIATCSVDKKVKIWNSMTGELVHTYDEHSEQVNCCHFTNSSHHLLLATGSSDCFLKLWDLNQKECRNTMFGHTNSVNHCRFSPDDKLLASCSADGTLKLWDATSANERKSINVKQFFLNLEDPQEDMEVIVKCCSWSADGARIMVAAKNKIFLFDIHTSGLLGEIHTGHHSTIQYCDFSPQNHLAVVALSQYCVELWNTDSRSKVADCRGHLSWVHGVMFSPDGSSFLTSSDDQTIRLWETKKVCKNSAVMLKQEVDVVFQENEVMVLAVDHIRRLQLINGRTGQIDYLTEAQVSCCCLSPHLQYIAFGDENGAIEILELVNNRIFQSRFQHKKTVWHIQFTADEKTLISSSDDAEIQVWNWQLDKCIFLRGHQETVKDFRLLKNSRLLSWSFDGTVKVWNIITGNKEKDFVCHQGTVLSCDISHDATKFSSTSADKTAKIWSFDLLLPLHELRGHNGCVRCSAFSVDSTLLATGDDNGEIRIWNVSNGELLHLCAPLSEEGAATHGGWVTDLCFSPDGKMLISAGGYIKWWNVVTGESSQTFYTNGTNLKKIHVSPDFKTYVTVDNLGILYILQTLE", "type": "functional"}}, "note": "Active and inactive are the calls of the source."}
{"compound": "O=C1N=C(NS(=O)(=O)Cc2ccccc2)S/C1=C1\\C(=O)Nc2ccccc21", "values": [{"measurement": "IC50", "setting": "[1]", "result": "15.7 µM (active)"}]}
{"compound": "O=C1C=C(N2CCCCC2)c2ccccc2C1=O", "values": [{"measurement": "EC50", "setting": "[2]", "result": "> 120 µM (not active)"}, {"measurement": "EC50", "setting": "[3]", "result": "8.27 µM (active)"}, {"measurement": "IC50", "setting": "[4]", "result": "2.12 µM (active)"}]}
{"compound": "O=C(CCc1ccccc1)NNc1cc(N2CCCCC2)nc(N2CCCCC2)n1", "values": [{"measurement": "EC50", "setting": "[2]", "result": "> 120 µM (not active)"}, {"measurement": "EC50", "setting": "[3]", "result": "> 120 µM (not active)"}, {"measurement": "IC50", "setting": "[4]", "result": "3.62 µM (active)"}]}
{"compound": "Clc1ccc2nc(-c3ccc(Br)s3)cn2c1", "values": [{"measurement": "IC50", "setting": "[1]", "result": "12.3 µM (active)"}]}
{"compound": "Oc1ccc(N=Nc2c(O)ccc3ccccc23)cc1", "values": [{"measurement": "IC50", "setting": "[1]", "result": "13 µM (active)"}]}
